Assay results from patent US12419857B2, “Oral topiramate suspension formulations with extended shelf stability and enhanced bioavailability” (Rosemont Pharmaceuticals Limited, priority 2018, dated 2025).
≈ marks a conversion by molar mass, not a printed value. Like-named read-outs stand apart in the source and are kept apart here.

Experiments:
[1] = Solubility of topiramate in water and non-aqueous reagents; assay type: physicochemical; conditions: for solubility: water
Text: The present application discloses the first example of an aqueous suspension of topiramate with extended physicochemical stability and therapeutic bioavailability equivalent to that of commercially approved solid dose formulations. […] See, Physician's Desk Reference, 56th ed., pp. 2590-2595 (2002). Topiramate may be produced according to the processes disclosed in U.S. Pat. Nos. 4,513,006 and 5,387,700, the entire contents of which are herein incorporated by reference. Topiramate is sold in the United States under the trade name TOPAMAX® (Ortho-McNeil Pharmaceutical, Inc., Raritan, N.J., U.S.A). TOPAMAX® has been approved for use as an antiepileptic agent as an adjuvant therapy for patients with partial onset seizures, or primary generalized tonic-clonic seizures. See generally, Physician's Desk Reference, 56th ed., 2590-2595 (2002); see also, U.S. Pat. No. 4,513,006.
For drugs with low solubility and/or bioavailability at physiological pH and temperature, efforts to develop suspension formulations are often met with varying rates of success due to restrictive physiochemical parameters of the API and/or excipients. For example, while simply increasing the volume of diluent for low-solubility drugs may improve solubility, the large volume of diluent is often prohibitive from a patient perspective.
From a purely chemical perspective, topiramate is highly sensitive to heat (e.g., room temperature) and humidity (e.g., aqueous environment of liquid formulations). For example, abandoned U.S. Pat. App. No. 2006/0270611 discloses that topiramate is highly sensitive to hydrolysis in an aqueous medium and that any conventional aqueous oral solution would have a very limited shelf life. The chemical instability of topiramate is so well known, that pharmacists routinely monitor topiramate degradation by a change in physical appearance (e.g., tablet color changing from white to brown) and by an emergence of chemical breakdown byproducts (e.g., formation of sulfamate and sulphate ions and organic degradation compounds readily detected by HPLC). […]

[2] = Dissolution testing (paddles 58 RPM) at three pH levels vs TOPAMAX 200 mg Tablets; assay type: physicochemical; conditions: once the suspension matrix has degraded
Method: Two issues were observed during the dissolution testing of the oral topiramate suspension: (i) the suspension produces very poor inter-vessel reproducibility with very large error values up until near dissolution completion and (ii) when comparing the reference tablet formulation with the suspensions very poor comparison is seen as the tablets tend to complete dissolution at a much faster rate. It was determined that both of these issues are caused by the physiochemical characteristics of the topiramate suspension vehicle and the release of the active ingredient from the suspension matrix. Once the suspension matrix is broken down, the topiramate becomes readily bioavailable. […] Changes in the physical nature of the product can also be detected with this novel testing approach.
Process validation batches were manufactured using the final production equipment and facility to cGMP and compared to a reference product (TOPAMAX® 200 mg Tablets) using dissolution (paddles 58 RPM) at three pH levels (i.e., 1.2, 4.5 and 6.8). FIG. 7. […] Thus, data support the claim that the disclosed 10 mg/ml and 20 mg/ml oral liquid topiramate suspension products are bioequivalent to the reference product TOPAMAX® 200 mg tablets (Janssen Cilag, Ltd.).

[3] = acetone, chloroform, dimethylsulfoxide, ethanol; cited from earlier work

CC1(C)O[C@@H]2[C@@H](CO[C@@]3(COS(N)(=O)=O)OC(C)(C)O[C@@H]23)O1 [topiramate, 2,3:4,5-Bis-O-(1-methylethylidene)- -D-fructopyranose sulfamate]
solubility ([1]; purified water, 25 °C, 25 degrees Celsius, read-out: observed solubility in purified water): 8300 µg/mL (≈ 24.5 mM)
pH of maximum aqueous solubility ([1]; strongly alkaline solutions): ~9.5 pH
solubility ([1]; 5 °C, 5 degrees Celsius, read-out: observed solubility in water): 6400 µg/mL (≈ 18.9 mM)
BCS class [2]: BCS Class I or III
solubility in non-aqueous reagents [3]: freely soluble
